ChEMBL document CHEMBL1201862, “PubChem BioAssay data set” (2004)
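Interpolation was linear, between the two tested concentrations surrounding the appropriate level; five concentrations were tested over 48 hours in 96-well plates. GI50: concentration for 50% inhibition of growth.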 Activity calls are given as the source filed them. No stated cut-off is given here; in the data, active = GI50 up to about 1.1 µM and inactive = higher.

Columns and labels:
Experiment in all cases: NCI tumour cell line growth inhibition, 48 h
A549 = tested on: A549
NCI-H226 = tested on: NCI-H226
SK-OV-3 = tested on: SK-OV-3
CAKI-1 = tested on: CAKI-1
786-0 = tested on: 786-0
HCT-116 = tested on: HCT-116
NCI-H23 = tested on: NCI-H23
DU-145 = tested on: DU-145
OVCAR-4 = tested on: OVCAR-4
UACC-62 = tested on: UACC-62
ACHN = tested on: ACHN
UACC-257 = tested on: UACC-257
TK-10 = tested on: TK-10
IGROV-1 = tested on: IGROV-1
HOP-62 = tested on: HOP-62
M14 = tested on: M14
A498 = tested on: A498
OVCAR-3 = tested on: OVCAR-3
SK-MEL-28 = tested on: SK-MEL-28
RPMI-8226 = tested on: RPMI-8226

| SMILES | GI50 (A549) | GI50 (NCI-H226) | GI50 (SK-OV-3) | GI50 (CAKI-1) | GI50 (786-0) | GI50 (HCT-116) | GI50 (NCI-H23) | GI50 (DU-145) | GI50 (OVCAR-4) | GI50 (UACC-62) | GI50 (ACHN) | GI50 (UACC-257) | GI50 (TK-10) | GI50 (IGROV-1) | GI50 (HOP-62) | GI50 (M14) | GI50 (A498) | GI50 (OVCAR-3) | GI50 (SK-MEL-28) | GI50 (RPMI-8226) |
| --- | --- | --- | --- | --- | --- | --- | --- | --- | --- | --- | --- | --- | --- | --- | --- | --- | --- | --- | --- | --- |
| C=CCN1C[C@H](C)N([C@@H](c2ccc(C(=O)N3CCCCC3)cc2)c2cccc(OC)c2)C[C@H]1C | 30.5 µM (inactive) | 45.4 µM (inactive) | 89.5 µM (inactive) | 66.4 µM (inactive) | 37.9 µM (inactive) | 28.6 µM (inactive) | 42.4 µM (inactive) | 80.5 µM (inactive) | 56.4 µM (inactive) | 21.5 µM (inactive) | 32.3 µM (inactive) | 21.2 µM (inactive) | 40 µM (inactive) | 63.2 µM (inactive) | > 100 µM (inactive) | 17.4 µM (inactive) | 29.4 µM (inactive) | 49.2 µM (inactive) | – | – |
| O=c1[nH]c(=O)n(CCOc2ccccc2)cc1Nc1ccccc1 | > 100 µM (inactive) | – | – | > 100 µM (inactive) | 61.2 µM (inactive) | > 100 µM (inactive) | > 100 µM (inactive) | > 100 µM (inactive) | – | > 100 µM (inactive) | 92.7 µM (inactive) | > 100 µM (inactive) | – | > 100 µM (inactive) | 22.3 µM (inactive) | > 100 µM (inactive) | > 100 µM (inactive) | > 100 µM (inactive) | > 100 µM (inactive) | > 100 µM (inactive) |
| [O-][n+]1c2ccccc2[n+]([O-])c2cc(Br)ccc21 | 10.8 µM (inactive) | 21.6 µM (inactive) | – | 5.41 µM (inactive) | 10.1 µM (inactive) | 70.1 µM (inactive) | 21.5 µM (inactive) | 24.7 µM (inactive) | 18.9 µM (inactive) | 18.3 µM (inactive) | 4.81 µM (inactive) | 17.9 µM (inactive) | 26.1 µM (inactive) | 5.81 µM (inactive) | 45 µM (inactive) | 17.2 µM (inactive) | 17.9 µM (inactive) | 2.21 µM (inactive) | 54.1 µM (inactive) | 8.05 µM (inactive) |
| CC(=O)OCC1OC(NC(=S)Nn2c(-c3ccccc3)nc3ccccc3c2=O)C(OC(C)=O)C(OC(C)=O)C1OC(C)=O (stereo not drawn) | > 100 µM (inactive) | 14.7 µM (inactive) | > 100 µM (inactive) | > 100 µM (inactive) | > 100 µM (inactive) | > 100 µM (inactive) | > 100 µM (inactive) | > 100 µM (inactive) | – | 51.5 µM (inactive) | > 100 µM (inactive) | > 100 µM (inactive) | – | 33.8 µM (inactive) | 97.7 µM (inactive) | 62.7 µM (inactive) | > 100 µM (inactive) | 30.8 µM (inactive) | 90.2 µM (inactive) | > 100 µM (inactive) |
| CC1=N[C@@](C)(C2CC3C=CC2C3=O)COC1=O (stereo partly drawn) | > 100 µM (inactive) | > 100 µM (inactive) | > 100 µM (inactive) | > 100 µM (inactive) | > 100 µM (inactive) | > 100 µM (inactive) | > 100 µM (inactive) | > 100 µM (inactive) | > 100 µM (inactive) | > 100 µM (inactive) | > 100 µM (inactive) | > 100 µM (inactive) | > 100 µM (inactive) | > 100 µM (inactive) | > 100 µM (inactive) | > 100 µM (inactive) | > 100 µM (inactive) | > 100 µM (inactive) | > 100 µM (inactive) | – |
| Cc1cnc2[nH]c(-c3ccccc3)cc(=O)c2c1 | 0.0585 µM (active) | 0.122 µM (active) | 0.0284 µM (active) | < 0.0186 µM (active) | 0.043 µM (active) | < 0.0155 µM (active) | 0.0741 µM (active) | 0.0395 µM (active) | 1.35 µM (inactive) | < 0.0132 µM (active) | 0.0608 µM (active) | < 0.0218 µM (active) | 0.151 µM (active) | 0.0817 µM (active) | 1.21 µM (inactive) | 0.0213 µM (active) | – | 0.0123 µM (active) | 0.0363 µM (active) | 0.0219 µM (active) |
| O=C(NCCCCN(CCCNC(=O)C(F)(F)F)Cc1ccccc1)C(F)(F)F | > 100 µM (inactive) | 35.4 µM (inactive) | > 100 µM (inactive) | – | > 100 µM (inactive) | > 100 µM (inactive) | > 100 µM (inactive) | > 100 µM (inactive) | > 100 µM (inactive) | > 100 µM (inactive) | > 100 µM (inactive) | > 100 µM (inactive) | > 100 µM (inactive) | 25.2 µM (inactive) | > 100 µM (inactive) | > 100 µM (inactive) | > 100 µM (inactive) | > 100 µM (inactive) | > 100 µM (inactive) | > 100 µM (inactive) |
